# Assay results published in US9604975B2, “Indolyl-pyridone derivatives having checkpoint kinase 1 inhibitory activity” (Vernalis (R&D) Ltd., priority 2009, dated 2017).
# Legend:
# CHK1 = biological target: T1, CHK1 (Homo sapiens, UniProt O14757); assay: CHK1 Enzyme Assay (phosphorylation of Chktide peptide, 33P-ATP filter assay); type: biochemical; settings: 12.5 nM His-CHK1, 0.01 mM ATP, 40 minutes at 30° C.; read-out: CHK1 Enzyme Activity (IC50 range)
# T1 construct: His; purchased Invitrogen
# T1 sequence (O14757 1-476): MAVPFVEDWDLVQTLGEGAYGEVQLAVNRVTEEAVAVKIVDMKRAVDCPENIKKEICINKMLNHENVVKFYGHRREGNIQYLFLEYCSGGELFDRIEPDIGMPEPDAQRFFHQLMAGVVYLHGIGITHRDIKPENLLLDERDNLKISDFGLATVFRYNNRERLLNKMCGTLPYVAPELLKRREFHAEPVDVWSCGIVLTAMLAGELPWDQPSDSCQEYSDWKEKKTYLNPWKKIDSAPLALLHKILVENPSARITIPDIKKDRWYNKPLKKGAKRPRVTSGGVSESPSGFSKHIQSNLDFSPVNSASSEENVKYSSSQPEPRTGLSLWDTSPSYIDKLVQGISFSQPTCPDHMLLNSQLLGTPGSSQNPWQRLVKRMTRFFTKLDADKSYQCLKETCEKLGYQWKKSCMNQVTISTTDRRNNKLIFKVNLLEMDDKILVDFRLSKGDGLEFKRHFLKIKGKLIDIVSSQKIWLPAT
# Method in brief: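 Filter-binding radiometric readout of 33P incorporation into Chktide (14.8 μM), after a 40 min, 30 °C reaction at pH 7.5 (50 mM Hepes-NaOH, 0.1 mg/mL BSA). The reaction contained 12.5 nM His-tagged CHK1, inhibitor and 0.01 mM cold ATP plus labelled ATP.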
# HT29 cells = assay: CHK1 Cellular Assay - Gemcitabine EC50 Assay; type: cell-based; settings: for EC50: HT29 cells, in the presence of gemcitabine at 10 nM, 72 hours, SRB staining, read-out: CHK1 Cellular Activity (EC50 range)
# Procedure: The gemcitabine EC50 assay was developed as a rapid method for screening CHK1 inhibitors to determine their relative cell activity. This assay utilises a feature of the effect of CHK1 inhibitors on gemcitabine toxicity. In the absence of a CHK1 inhibitor, gemcitabine acts predominantly as an anti-metbolite and therefore induces very little cell death, even at high concentrations. This can be as high as 70-80% survival at concentrations in excess of 1 μM. However, in the presence of a CHK1 inhibitor, the mechanism of action of gemcitabine switches to a more classical cytotoxic mode of action. For example, the fraction of cells surviving can be reduced to around 30% and below. Concentrations of gemcitabine can be selected that in the absence of a CHK1 inhibitor, have no effect on cell survival but in the presence of a CHK1 inhibitor are highly cytotoxic. 10000 HT29 cells were plated per well of a 96 well plate and allowed to attach at 37° C. in a 5% CO2 humidified incubator for 18 hours. CHK1 inhibitors were then titrated in the presence of 10, 15 and 20 nM gemcitabine for 72 hours and the EC50 determined by staining with sulforhodamine B (SRB) and determining the absorbance at 540 nm.
Structure (SMILES),IC50 (CHK1),EC50 (HT29 cells),"survival (HT29 cells; gemcitabine in the absence of a CHK1 inhibitor, concentrations in excess of 1 μM)"
"O=C(Nc1c[nH]c(=O)c(-c2cc3ccccc3[nH]2)c1)c1cnn(Cc2ccccc2)c1 [Example 20, 1-Benzyl-1H-pyrazole-4-carboxylic acid [5-(1H-indol-2-yl)-6-oxo-1,6-dihydro-pyridin-3-yl]-amide]",< 100 nM,100 to 500 nM,
"Cc1ccc(Cn2cc(C(=O)Nc3c[nH]c(=O)c(-c4cc5cc(CN6CCCCC6)ccc5[nH]4)c3)cn2)cc1 [Example 38, 1-(4-Methyl-benzyl)-1H-pyrazole-4-carboxylic acid [6-oxo-5-(5-piperidin-1-ylmethyl-1H-indol-2-yl)-1,6-dihydro-pyridin-3-yl]-amide]",< 100 nM,100 to 500 nM,
"O=C(Nc1c[nH]c(=O)c(-c2cc3cc(CN4CCC(F)CC4)ccc3[nH]2)c1)c1cnn(Cc2ccccc2)c1 [Example 49, 1-Benzyl-1H-pyrazole-4-carboxylic acid {3-[5-(4-fluoro-piperidin-1-ylmethyl)-1H-indol-2-yl]-6-oxo-1,6-dihydro-pyridin-3-yl}-amide]",< 100 nM,< 100 nM,
"O=C(Nc1c[nH]c(=O)c(-c2cc3cc(CN4CCCCC4)ccc3[nH]2)c1)c1cnn(Cc2ccccc2)c1 [Example 52, 1-Benzyl-1H-pyrazole-4-carboxylic acid [6-oxo-5-(5-piperidin-1-ylmethyl-1H-indol-2-yl)-1,6-dihydro-pyridin-3-yl]-amide]",< 100 nM,< 100 nM,
"C[C@@H]1CN(Cc2ccc3[nH]c(-c4cc(NC(=O)c5cnn(Cc6ccccc6)c5)c[nH]c4=O)cc3c2)C[C@H](C)O1 [Example 71, 1-Benzyl-1H-pyrazole-4-carboxylic acid {5-[5-(cis-2,6-dimethyl-morpholin-4-ylmethyl)-1H-indol-2-yl]-6-oxo-1,6-dihydro-pyridin-3-yl}-amide]",< 100 nM,< 100 nM,
"CC1CCN(Cc2ccc3[nH]c(-c4cc(NC(=O)c5cnn(Cc6ccccc6)c5)c[nH]c4=O)cc3c2)CC1 [Example 78, 1-Benzyl-1H-pyrazole-4-carboxylic acid {5-[5-(4-methyl-piperidin-1-ylmethyl)-1H-indol-2-yl]-6-oxo-1,6-dihydro-pyridin-3-yl}-amide]",< 100 nM,< 100 nM,
"CC(c1ccccc1)n1cc(C(=O)Nc2c[nH]c(=O)c(-c3cc4cc(CN5CCC(F)CC5)ccc4[nH]3)c2)cn1 (stereo not drawn) [Example 87, 1-(1-Phenyl-ethyl)-1H-pyrazole-4-carboxylic acid {5-[5-(4-fluoro-piperidin-1-ylmethyl)-1H-indol-2-yl]-6-oxo-1,6-dihydro-pyridin-3-yl}-amide]",< 100 nM,< 100 nM,
"CN(C)CC(C)(C)COc1ccc2[nH]c(-c3cc(NC(=O)c4cnn(Cc5ccccc5)c4)c[nH]c3=O)cc2c1 [Example 120, 1-Benzyl-1H-pyrazole-4-carboxylic acid {5-[5-(3-dimethylamino-2,2-dimethyl-propoxy)-1H-indol-2-yl]-6-oxo-1,6-dihydro-pyridin-3-yl}-amide]",< 100 nM,< 100 nM,
C[C@@H]1CN(Cc2ccc3[nH]c(-c4cc(NC(=O)c5cnn([C@H](C)c6ccccc6)c5)c[nH]c4=O)cc3c2)C[C@H](C)O1 [Example 166],< 100 nM,< 100 nM,
"C[C@H]1CCCCN1Cc1ccc2[nH]c(-c3cc(NC(=O)c4cnn(Cc5ccccc5)c4)c[nH]c3=O)cc2c1 [Example 171, 1-Benzyl-1H-pyrazole-4-carboxylic acid {5-[5-((S)-2-methyl-piperidin-1-ylmethyl)-1H-indol-2-yl]-6-oxo-1,6-dihydro-pyridin-3-yl}-amide]",< 100 nM,< 100 nM,
"C[C@@H]1CCCCN1Cc1ccc2[nH]c(-c3cc(NC(=O)c4cnn(Cc5ccccc5)c4)c[nH]c3=O)cc2c1 [Example 173, 1-Benzyl-1H-pyrazole-4-carboxylic acid {5-[5-((R)-2-methyl-piperidin-1-ylmethyl)-1H-indol-2-yl]-6-oxo-1,6-dihydro-pyridin-3-yl}-amide]",< 100 nM,< 100 nM,
"CCN(Cc1ccc2[nH]c(-c3cc(NC(=O)c4cnn(Cc5ccccc5)c4)c[nH]c3=O)cc2c1)CC(C)(C)CN(C)C [Example 176, 1-Benzyl-1H-pyrazole-4-carboxylic acid [5-(5-{[(3-dimethylamino-2,2-dimethyl-propyl)-ethyl-amino]-methyl}-1H-indol-2-yl)-6-oxo-1,6-dihydro-pyridin-3-yl]-amide]",< 100 nM,100 to 500 nM,
"C[C@@H]1CCC[C@H](C)N1Cc1ccc2[nH]c(-c3cc(NC(=O)c4cnn(Cc5ccccc5)c4)c[nH]c3=O)cc2c1 [Example 177, 1-Benzyl-1H-pyrazole-4-carboxylic acid {5-[5-(cis-2,6-dimethyl-piperidin-1-ylmethyl)-1H-indol-2-yl]-6-oxo-1,6-dihydro-pyridin-3-yl}-amide]",< 100 nM,< 100 nM,
"CC(C)(COc1ccc2[nH]c(-c3cc(NC(=O)c4cnn(Cc5ccccc5)c4)c[nH]c3=O)cc2c1)CN1CCC(F)(F)C1 [Example 181, 1-Benzyl-1H-pyrazole-4-carboxylic acid (5-{5-[3-(3,3-difluoro-pyrrolidin-1-yl)-2,2-dimethyl-propoxy]-1H-indol-2-yl}-6-oxo-1,6-dihydro-pyridin-3-yl)-amide]",< 100 nM,,
"CC(C)(COc1ccc2[nH]c(-c3cc(NC(=O)c4cnn(Cc5ccccc5)c4)c[nH]c3=O)cc2c1)CN1CC[C@@H](F)C1 [Example 182, 1-Benzyl-1H-pyrazole-4-carboxylic acid (5-{5-[3-((R)-3-fluoro-pyrrolidin-1-yl)-2,2-dimethyl-propoxy]-1H-indol-2-yl}-6-oxo-1,6-dihydro-pyridin-3-yl)-amide]",< 100 nM,,
"CC(C)(COc1ccc2[nH]c(-c3cc(NC(=O)c4cnn(Cc5ccccc5)c4)c[nH]c3=O)cc2c1)CN1CC[C@H](F)C1 [Example 183, 1-Benzyl-1H-pyrazole-4-carboxylic acid (5-{5-[3-((S)-3-fluoro-pyrrolidin-1-yl)-2,2-dimethyl-propoxyl]-1H-indol-2-yl}-6-oxo-1,6-dihydro-pyridin-3-yl)-amide]",< 100 nM,,
"CC(C)(COc1ccc2[nH]c(-c3cc(NC(=O)c4cnn(Cc5ccccc5)c4)c[nH]c3=O)cc2c1)CN1CCOCC1 [Example 184, 1-Benzyl-1H-pyrazole-4-carboxylic acid {5-[5-(2,2-dimethyl-3-morpholin-4-yl-propoxy)-1H-indol-2-yl]-6-oxo-1,6-dihydro-pyridin-3-yl}-amide]",< 100 nM,,
"O=C(Nc1c[nH]c(=O)c(-c2cc3cc(OCC4(CN5CCCC5)CC4)ccc3[nH]2)c1)c1cnn(Cc2ccccc2)c1 [Example 187, 1-Benzyl-1H-pyrazole-4-carboxylic acid {6-oxo 5-[5-(1-pyrrolidin-1-ylmethyl-cyclopropylmethoxy)-1H-indol-2-yl]-1,6-dihydro-pyridin-3-yl}-amide]",< 100 nM,,
"CN(C)CC1(COc2ccc3[nH]c(-c4cc(NC(=O)c5cnn(Cc6ccccc6)c5)c[nH]c4=O)cc3c2)CC1 [Example 188, 1-Benzyl-1H-pyrazole-4-carboxylic acid {5-[5-(1-dimethylaminomethyl-cyclopropylmethoxy)-1H-indol-2-yl]-6-oxo-1,6-dihydro-pyridin-3-yl}-amide]",< 100 nM,,
"Nc1ccn([C@@H]2O[C@H](CO)[C@@H](O)C2(F)F)c(=O)n1 [gemcitabine, reference compound]",,,70-80%
